Measured values as given in ChEMBL document CHEMBL1201862, “PubChem BioAssay data set” (2004).
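Results reflect a 48-hour exposure of cells in 96-well plates to compound at five concentrations. GI50 = concentration required for 50% inhibition of growth.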 The source made the active and inactive calls. Cut-off read from the data, not from the text of the source: active = GI50 up to about 1.1 µM and inactive = higher.

Assays:
Experiment in all cases: NCI tumour cell line growth inhibition, 48 h
RXF 393 = system: RXF 393
NCI-H522 = system: NCI-H522
NCI-H460 = system: NCI-H460
K562 = system: K562
786-0 = system: 786-0
ACHN = system: ACHN
HOP-92 = system: HOP-92
CAKI-1 = system: CAKI-1
A549 = system: A549
SNB-75 = system: SNB-75
RPMI-8226 = system: RPMI-8226
UACC-257 = system: UACC-257
OVCAR-3 = system: OVCAR-3
SK-MEL-5 = system: SK-MEL-5

Row | SMILES | GI50 (RXF 393) | GI50 (NCI-H522) | GI50 (NCI-H460) | GI50 (K562) | GI50 (786-0) | GI50 (ACHN) | GI50 (HOP-92) | GI50 (CAKI-1) | GI50 (A549) | GI50 (SNB-75) | GI50 (RPMI-8226) | GI50 (UACC-257) | GI50 (OVCAR-3) | GI50 (SK-MEL-5)
1 | N=c1oc2c(O)c(O)ccc2cc1C(N)=O | 50.2 µM (inactive) | 58.6 µM (inactive) | > 100 µM (inactive) | 17.7 µM (inactive) | 12 µM (inactive) | > 100 µM (inactive) | > 100 µM (inactive) | > 100 µM (inactive) | > 100 µM (inactive) | 30.2 µM (inactive) | 32.1 µM (inactive) | 32.1 µM (inactive) | 46.8 µM (inactive) | –
2 | COc1cc2c3c(c1OC)C(=O)C=C3N(S(=O)(=O)c1ccc(C)cc1)CC2 | – | 10.4 µM (inactive) | > 100 µM (inactive) | > 100 µM (inactive) | 21.3 µM (inactive) | 75.9 µM (inactive) | > 100 µM (inactive) | 52.6 µM (inactive) | > 100 µM (inactive) | 46.9 µM (inactive) | > 100 µM (inactive) | > 100 µM (inactive) | > 100 µM (inactive) | > 100 µM (inactive)
3 | CN1C(=O)c2cccc3c([N+](=O)[O-])ccc(c23)C1=O | 3.1 µM (inactive) | 1.36 µM (inactive) | 2.56 µM (inactive) | 4.1 µM (inactive) | 8.85 µM (inactive) | 10.1 µM (inactive) | 6.52 µM (inactive) | 2.45 µM (inactive) | 12.7 µM (inactive) | 12.3 µM (inactive) | – | 9.53 µM (inactive) | 3.19 µM (inactive) | 18.3 µM (inactive)
4 | Cc1ccc(S(=O)(=O)ON/N=C2/C3OC3[C@@H]3CCCC[C@H]23)cc1 (stereo partly drawn) | 39.1 µM (inactive) | > 100 µM (inactive) | > 100 µM (inactive) | > 100 µM (inactive) | > 100 µM (inactive) | > 100 µM (inactive) | > 100 µM (inactive) | > 100 µM (inactive) | > 100 µM (inactive) | > 100 µM (inactive) | > 100 µM (inactive) | 0.692 µM (active) | > 100 µM (inactive) | –
5 | O=C(O)/C=C/n1c2ccccc2c(=O)c2ccccc21 | > 100 µM (inactive) | > 100 µM (inactive) | > 100 µM (inactive) | > 100 µM (inactive) | > 100 µM (inactive) | > 100 µM (inactive) | – | > 100 µM (inactive) | > 100 µM (inactive) | – | > 100 µM (inactive) | > 100 µM (inactive) | > 100 µM (inactive) | –
6 | Nc1ncnc2c1ncn2C1OC(CSC(F)F)C(O)C1O (stereo not drawn) | – | 86.3 µM (inactive) | > 100 µM (inactive) | > 100 µM (inactive) | > 100 µM (inactive) | > 100 µM (inactive) | > 100 µM (inactive) | > 100 µM (inactive) | > 100 µM (inactive) | > 100 µM (inactive) | > 100 µM (inactive) | > 100 µM (inactive) | > 100 µM (inactive) | > 100 µM (inactive)
7 | NC(CCC(=O)NC(CSC(=O)N(O)c1ccccc1)C(=O)NCC(=O)O)C(=O)O (stereo not drawn) | > 1000 µM (inactive) | > 1000 µM (inactive) | > 1000 µM (inactive) | > 1000 µM (inactive) | > 1000 µM (inactive) | > 1000 µM (inactive) | > 1000 µM (inactive) | > 1000 µM (inactive) | > 1000 µM (inactive) | > 1000 µM (inactive) | – | > 1000 µM (inactive) | > 1000 µM (inactive) | > 1000 µM (inactive)
8 | CCOC(=O)C1C(=O)C(=O)N2CCc3c([nH]c4ccccc34)C12 (stereo not drawn) | > 100 µM (inactive) | > 100 µM (inactive) | – | > 100 µM (inactive) | > 100 µM (inactive) | – | > 100 µM (inactive) | > 100 µM (inactive) | > 100 µM (inactive) | – | > 100 µM (inactive) | – | > 100 µM (inactive) | > 100 µM (inactive)
9 | O=S1(=O)CS(=O)(=O)OCCCCCO1 | > 100 µM (inactive) | > 100 µM (inactive) | > 100 µM (inactive) | > 100 µM (inactive) | > 100 µM (inactive) | > 100 µM (inactive) | > 100 µM (inactive) | > 100 µM (inactive) | > 100 µM (inactive) | > 100 µM (inactive) | > 100 µM (inactive) | > 100 µM (inactive) | – | –
10 | COc1ccc(CNc2cnc3cc(N)ccc3n2)cc1OC | – | > 100 µM (inactive) | > 100 µM (inactive) | > 100 µM (inactive) | > 100 µM (inactive) | > 100 µM (inactive) | – | > 100 µM (inactive) | > 100 µM (inactive) | > 100 µM (inactive) | > 100 µM (inactive) | > 100 µM (inactive) | > 100 µM (inactive) | > 100 µM (inactive)
11 | Cc1cn(C2CC(CCCO)C(CO)O2)c(=O)[nH]c1=O (stereo not drawn) | > 100 µM (inactive) | > 100 µM (inactive) | > 100 µM (inactive) | > 100 µM (inactive) | > 100 µM (inactive) | > 100 µM (inactive) | – | > 100 µM (inactive) | > 100 µM (inactive) | – | > 100 µM (inactive) | > 100 µM (inactive) | > 100 µM (inactive) | > 100 µM (inactive)
12 | Cc1c(C(=O)c2ccccc2C(=O)O)c2ccccc2n1C | > 100 µM (inactive) | – | > 100 µM (inactive) | > 100 µM (inactive) | > 100 µM (inactive) | > 100 µM (inactive) | – | > 100 µM (inactive) | > 100 µM (inactive) | > 100 µM (inactive) | > 100 µM (inactive) | > 100 µM (inactive) | > 100 µM (inactive) | > 100 µM (inactive)
13 | CC(C)(C)C#COC(=O)c1ccccc1 | – | > 100 µM (inactive) | > 100 µM (inactive) | > 100 µM (inactive) | > 100 µM (inactive) | > 100 µM (inactive) | – | > 100 µM (inactive) | > 100 µM (inactive) | – | > 100 µM (inactive) | > 100 µM (inactive) | > 100 µM (inactive) | > 100 µM (inactive)
14 | CCOC(=O)[C@H]1Nc2ccc(Cl)cc2[C@H]2CCC[C@@H]12 | 17.9 µM (inactive) | 31.5 µM (inactive) | > 100 µM (inactive) | > 100 µM (inactive) | > 100 µM (inactive) | > 100 µM (inactive) | – | 86.9 µM (inactive) | 88.3 µM (inactive) | 72.3 µM (inactive) | > 100 µM (inactive) | 22 µM (inactive) | 61.4 µM (inactive) | 71.6 µM (inactive)
15 | Cc1cc(C)nc(NS(=O)(=O)c2ccc(Nc3c4ccccc4nc4c(C(=O)N5CCN(CCO)CC5)cccc34)cc2)n1 | > 100 µM (inactive) | – | > 100 µM (inactive) | > 100 µM (inactive) | > 100 µM (inactive) | > 100 µM (inactive) | > 100 µM (inactive) | > 100 µM (inactive) | > 100 µM (inactive) | 95.7 µM (inactive) | – | > 100 µM (inactive) | > 100 µM (inactive) | > 100 µM (inactive)
16 | CC(C)N(C(=O)C12C3C4C1C1C4(C#N)C3C12C(=O)O)C(C)C (stereo not drawn) | – | > 69.3 µM (inactive) | > 67.3 µM (inactive) | > 69.8 µM (inactive) | > 100 µM (inactive) | > 100 µM (inactive) | > 100 µM (inactive) | > 100 µM (inactive) | 97.9 µM (inactive) | > 100 µM (inactive) | > 43.1 µM (inactive) | > 100 µM (inactive) | > 100 µM (inactive) | > 100 µM (inactive)
17 | CN(C)CC/C(=N\Nc1c(F)c(F)c(F)c(F)c1F)c1ccccc1 | 22 µM (inactive) | 14.3 µM (inactive) | 28 µM (inactive) | 20.4 µM (inactive) | 82.4 µM (inactive) | 30.9 µM (inactive) | – | – | 31.6 µM (inactive) | 3.35 µM (inactive) | 19 µM (inactive) | 24.1 µM (inactive) | > 10 µM (inactive) | 14.2 µM (inactive)
18 | OC1CC(O)O[C@H](c2ccccc2)C1 (stereo partly drawn) | > 100 µM (inactive) | – | > 100 µM (inactive) | > 100 µM (inactive) | > 100 µM (inactive) | > 100 µM (inactive) | > 100 µM (inactive) | > 100 µM (inactive) | > 100 µM (inactive) | > 100 µM (inactive) | > 100 µM (inactive) | > 100 µM (inactive) | > 100 µM (inactive) | > 100 µM (inactive)
19 | C[C@H]1[C@H](C)CC[C@]2(C(=O)O)CCC3(COC(=O)/C=C/c4ccc(O)cc4)C(=CCC4[C@@]5(C)CC[C@H](O)C(C)(C)C5CC[C@]43C)[C@H]12 (stereo partly drawn) | 10.9 µM (inactive) | 3.78 µM (inactive) | 3.09 µM (inactive) | 2.86 µM (inactive) | 5.16 µM (inactive) | 2.69 µM (inactive) | – | 2.85 µM (inactive) | 2.61 µM (inactive) | 10.2 µM (inactive) | 5.05 µM (inactive) | 14.7 µM (inactive) | 4.8 µM (inactive) | 11 µM (inactive)
20 | CC(=O)OC1C[C@H]2C(OC(=O)c3ccccc3)C3C4(OC(C)=O)COC4C[C@H](OC(C)=O)[C@@]3(C)C(OC(C)=O)[C@H](OC(C)=O)C(=C1C)C2(C)C (stereo partly drawn) | 16.2 µM (inactive) | 20.4 µM (inactive) | 35.5 µM (inactive) | 23.8 µM (inactive) | 35.9 µM (inactive) | 21 µM (inactive) | – | 13.5 µM (inactive) | 31.2 µM (inactive) | 14.3 µM (inactive) | 20.4 µM (inactive) | 58.6 µM (inactive) | 64.7 µM (inactive) | 26.3 µM (inactive)
21 | Cc1c2cc[n+](C)cc2c(C)c2c1[nH]c1ccc(Oc3ccccc3)cc12 | – | – | – | 0.383 µM (active) | 0.504 µM (active) | 2.05 µM (inactive) | 1.28 µM (inactive) | 1.89 µM (inactive) | 0.324 µM (active) | 0.44 µM (active) | 1.62 µM (inactive) | 1.18 µM (inactive) | 1.6 µM (inactive) | 0.794 µM (active)
